Source: patent US20080032933A1, “Type V Phosphodiesterase Inhibitors and Natriuretic Polypeptides” (MAYO FOUNDATION FOR MEDICAL EDUCATION AND RESEARCH, priority 2005, published 2008)
Where two headings read alike, the source gives them in different places. No end group written: not given here.

How the values were obtained:
[1] = tested on: male mongrel dogs with overt chronic heart failure produced by rapid ventricular pacing; conditions: dog, in vivo
Method: (§4) Studies were conducted in 2 groups of male mongrel dogs (18-23 kg) with overt chronic heart failure produced by rapid ventricular pacing at 240 beats per minute (bpm) for ten days on a fixed sodium diet. Group 1 (n=6) received Sildenafil (50 mg orally three times a day) during the 10 days of pacing and one dose an hour before the subcutaneous (SQ) administration of BNP on day 11. Group 2 (n=6) received no PDE V inhibitor, but did receive SQ BNP alone on day 11 of CHF.
(§5) Acute SQ BNP administration was performed as follows. On day 11 of rapid ventricular pacing at 240 bpm, an experiment was carried out to determine the cardiorenal and humoral function in both groups and also the response to acute SQ BNP administration (5 μg/kg). […] On the morning of the experiment, only group 1 received a final dose of Sildenafil 50 mg one hour before the dogs were anesthetized with sodium pentobarbital (15 mg/kg, i.v.), intubated, and mechanically ventilated with supplemental oxygen (Harvard respirator, Amersham, Millis, Mass.) at 20 cycles per minute. A flow-directed balloon-tipped thermodilution catheter (Ohmeda, Criticath, Madison, Wis.) was advanced into the pulmonary artery via the external jugular vein for cardiac hemodynamic measurement. The femoral artery was cannulated for blood pressure monitoring and blood sampling. The femoral vein was also cannulated for inulin and normal saline infusion. The left kidney was exposed via a flank incision, and the ureter was cannulated for urine collection. A calibrated electromagnetic flow probe was placed around the renal artery to measure renal blood flow (RBF).
(§6) The experiment began after a 60-minute equilibration period, with a 30-minute baseline urinary clearance. After the 30-minute baseline urinary clearance, SQ canine BNP 5 μg/kg was administered in the right hind leg. Following a 15-minute lead-in period, a 60-minute urinary clearance period was performed. Cardiovascular parameters measured during the acute experiment included mean arterial blood pressure (MAP), right atrial pressure (RAP), mean pulmonary arterial pressure (PAP), cardiac output (CO), and pulmonary capillary wedge pressure (PCWP). CO was determined by thermodilution in triplicate and averaged (Cardiac Output model 9510-A computer, American Edwards Laboratories, Irvine, Calif.). MAP was assessed via direct measurement from the femoral arterial catheter. Systemic vascular resistance (SVR) was calculated as [SVR=(MAP−RAP)/CO]. Inulin was administered intravenously at the start of the equilibration period as a calculated bolus, followed by a 1 mL/min continuous infusion to achieve plasma levels of 40-60 mg/dL. Glomerular filtration rate (GFR) was measured by inulin clearance.
(§7) Cardiovascular hemodynamics were measured at the start of each urinary clearance. Arterial blood was collected in heparin and EDTA tubes and immediately placed on ice midway through each clearance. After centrifugation at 2,500 rpm at 4° C., plasma was decanted and stored at −20° C. until analysis. Urine was collected on ice during the entire period of each clearance for assessment of urine volume, electrolytes, and inulin. Urine collected for cGMP analysis was heated to more than 90° C. before storage.
(§8) Plasma samples for BNP renin and angiotensin II were measured by radioimmunoassay (RIA) using methods described elsewhere (Chen et al., Circulation, 96:I-524 (1997)). Plasma and urinary samples for cGMP were measured by RIA using methods described elsewhere (Steiner et al., J. Biol. Chem., 247:1106-1113 (1972)). Urinary and plasma inulin concentrations were measured by the anthrone method (Davidson and Sachner, J. Lab. Clin. Med., 62:351-356 (1963)).

[2] = tested on: male mongrel dogs with overt chronic heart failure produced by rapid ventricular pacing; assay: Humoral, hemodynamic and renal response to acute SQ BNP on day 11 of pacing-induced CHF
Method: as §4, §5, §6, §7, §8

[3] = tested on: male mongrel dogs with overt chronic heart failure produced by rapid ventricular pacing; assay: LV remodeling (echocardiography FS, CO, LV mass, plasma BNP) after 10 days of PDE V inhibitor in pacing-induced CHF; assay type: in vivo, dog
Method: (§1) A model of pacing-induced overt chronic heart failure was used (Chen et al., Circulation, 100:2443-2448 (1999)). Briefly, all dogs underwent implantation of a programmable cardiac pacemaker (Medtronic, Minneapolis, Minn.). Under pentobarbital sodium anesthesia (30 mg/kg, intravenous) and artificial ventilation (Harvard respirator, Harvard Apparatus, Millis, Mass.) with 5 L/min supplemental oxygen, a left lateral thoracotomy and pericardiotomy were performed. With the heart exposed, a screw-in epicardial pacemaker lead was implanted into the right ventricle. The pacemaker generator was implanted subcutaneously into the left chest wall and connected to the pacemaker lead. Dogs received pre- and post-operative prophylactic antibiotic treatment with 225 mg clindamycin subcutaneously and 400,000 U procaine penicillin G plus 500 mg dihydrostreptomycin intramuscularly (Combiotic, Pfizer, Inc., New York, N.Y.). Post-operative prophylactic antibiotic was continued through the first two post-operative days. Dogs were fed a fixed sodium diet (58 mEq/day, Hill's ID) and allowed water ad lib. All dogs were walked daily. Appetite, activity, body temperature, and condition of surgical skin sites were documented. Following a 14-day post-operative recovery period, the pacemaker was turned on at 240 bpm.
Echocardiography was carried out at baseline before the pacemaker was turned on and at day 10 of pacing to determine LV fractional shortening (FS). Echocardiographic images were obtained in the conscious dog standing in a minimally restraining sling. Simultaneous electrocardiography was obtained. The optimal images were generally obtained from the right lateral chest wall just above the sternum at the equivalent of the anterior axillary line. Images analogous to the para-sternal long axis and para-sternal short axis views (human echocardiography) were consistently obtained at the base, mid-ventricular, and para-apical levels. LV two-dimensional (2D) and M-mode images were obtained with a 2.5-MHz ultrasonic transducer (General Electric Systems Five). LV M-mode tracings were obtained under 2D guidance using the 2D short-axis views between the two papillary muscles just distal to the mitral valve leaflet tips. All images were obtained in sinus rhythm. Care was taken to ensure that the M-mode cursor transects the LV in the midline, that the LV image is “on axis” (LV is round, not oval indicating an image between short and long axes), and that the cursor is perpendicular to the LV wall detecting maximal LV thickening of both the septal and posterior walls. End-diastole was defined as the maximal LV diastolic diameter at the peak of the R wave on the EKG, and end-systole was defined as the peak of the LV posterior wall motion. M-mode measurements were made in accordance with the American Society of Echocardiography leading-edge convention using the steepest continuous endocardial echoes. Measurements included LV end-diastolic (LVDd), and end-systolic dimensions (LVDs) were averaged for average dimension. FS (%)=[(LVDd−LVSd)/LVDd]*100.
(§2) Glomerular filtration rate (GFR) was measured by inulin clearance.
At the end of the acute experiment, the heart was harvested, and the LV was carefully dissected out and weighed to determine LV mass. The LV mass was divided by the body weight to give the LV mass/Kg body weight.
(§3) Results were expressed as mean ±SEM. […] GraphPad Prism software was used for the above calculation. Statistical significance was accepted as p<0.05.

[4] = tested on: male mongrel dogs with overt chronic heart failure produced by rapid ventricular pacing; assay: Cardiorenal and neurohumoral profile on day 11 of pacing-induced CHF; assay type: in vivo, dog
Method: as §1, with “bpm. […]” for “bpm.”
as §2, §3

[5] = Untreated CHF group (no PDE V inhibitor), after SQ canine BNP 5 μg/kg alone
[6] = untreated group (no PDE V inhibitor), SQ BNP alone (FIG. 2)
[7] = 10 days of treatment, compared to the untreated group (FIG. 1)
[8] = chronic administration in experimental overt CHF
[9] = Sildenafil 50 mg orally three times a day for 10 days of pacing, mean ± SE
[10] = Sildenafil 50 mg orally three times a day for 10 days, P < 0.05 versus Untreated
[11] = PDE V inhibitor-treated group, Baseline (before SQ BNP)
[12] = PDE V inhibitor-treated group, SQ BNP (FIG. 2)
[13] = PDE V inhibitor-treated group, after SQ BNP
[14] = PDE V inhibitor-treated group, after SQ canine BNP 5 μg/kg (combination)

With “BNP: canine brain natriuretic peptide administered subcutaneously at 5 μg/kg (SPKMMHKSGCFGRRLDRIGSLSGLGCNVLRKY; ends and bridges not checked; cysteine pairing not given here; UniProt P16859 109-140, looked up)” the “plasma BNP levels with SQ BNP” value [1] was “increased similarly”, the MAP [2, 5] was 110 ± 5 and the PAP [2, 5] was 25 ± 1. The PCWP [2, 5] was 20 ± 1, the “Plasma Ang II” value [2, 5] was 73 ± 31 and the “Plasma Renin” value [2, 5] was 20 ± 5. The “Plasma cGMP” value [2, 5] was 25 ± 3 pmol/mL, the RAP [2, 5] was 6 ± 1 and the “Urinary cGMP Excretion” value [2, 5] was 3580 ± 351 fmol/min. For the same molecule, the “GFR change with SQ BNP” value [2, 6] was “not observed”, the “PTFNa change with SQ BNP” value [2, 6] was “only trended to change” and the “UNaV change with SQ BNP” value [2, 6] was “only trended to change”. The “CO with SQ BNP” value ([2]; untreated group, after SQ BNP alone) was “unchanged”.

With `CCCc1nn(C)c2c(=O)[nH]c(-c3cc(S(=O)(=O)N4CCN(C)CC4)ccc3OCC)nc12` [PDE V inhibitor, Sildenafil] the “CO (cardiac output)” value [3, 7] was “improvement”, the “LV FS (fractional shortening)” value [3, 7] was “improvement” and the LV mass [3, 7] was “reduction in LV mass”. For the same molecule, the “plasma BNP levels” value [3, 7] was “strong trend for plasma BNP levels to be lower”, the LV remodeling [3, 8] was “improved LV remodeling” and the MAP [4, 9] was 110 ± 4 mmHg. The PAP [4, 9] was 27 ± 1 mmHg, the PCWP [4, 9] was 23 ± 1 mmHg and the RAP [4, 9] was 11 ± 1 mmHg. For the same molecule, the RBF [4, 9] was 160 ± 21 mL/min, the UNaV [4, 9] was 2 ± 1 μEq/min and the UV [4, 9] was 0.12 ± 0.01 mL/min. The “Plasma cGMP” value [4, 10] was 43 ± 2 pmol/mL, the “Urinary cGMP” value [4, 10] was 4219 ± 900 pmol/min and the GFR ([4]; Sildenafil 50 mg orally three times a day for 10 days, inulin clearance) was 30 ± 5 mL/min. It also gave an MAP [2, 11] of 110 ± 4, a PAP [2, 11] of 27 ± 1 and a PCWP [2, 11] of 23 ± 1. The “Plasma Ang II” value [2, 11] was 124 ± 2, the “Plasma Renin” value [2, 11] was 16 ± 2 and the “Plasma cGMP” value [2, 11] was 43 ± 2 pmol/mL. For the same molecule, the RAP [2, 11] was 11 ± 1, the “Urinary cGMP Excretion” value [2, 11] was 4219 ± 900 fmol/min and the “GFR change with SQ BNP” value [2, 12] was “increase in GFR”. The “PTFNa change with SQ BNP” value [2, 12] was “decreased significantly”, the “UNaV change with SQ BNP” value [2, 12] was “increased” and the “CO with SQ BNP” value [2, 13] was “unchanged”. For the same molecule, the “plasma BNP levels with SQ BNP” value [2, 13] was “increased similarly”, the MAP [2, 14] was 103 ± 7 and the PAP [2, 14] was 23 ± 1. For the same molecule, the PCWP [2, 14] was 18 ± 1, the “Plasma Ang II” value [2, 14] was 37 ± 2 and the “Plasma Renin” value [2, 14] was 9 ± 2. The “Plasma cGMP” value [2, 14] was 46 ± 3 pmol/mL, the RAP [2, 14] was 8 ± 1 and the “Urinary cGMP Excretion” value [2, 14] was 8600 ± 1600 fmol/min. The cardiovascular hemodynamic effects ([2]; chronic Sildenafil with acute SQ BNP in experimental overt CHF) was “without adverse cardiovascular hemodynamic effects” and the “renal response to acute SQ BNP” value [2, 8] was “enhanced”.
